The values below are quoted from earlier work in patent US20220016116A1, “DETERMINING DRUG COMBINATIONS, SYNERGISTIC DRUG COMBINATION AND USE THEREOF IN PANCREATIC CANCER TREATMENT” (Innoplexus AG, priority 2020, published 2022).

pIC50: −log10 of the molar value.

For data set [1] the following is noted: independent of drug concentrations from 250 ng/mL to 1000 ng/mL.
For data set [2], the target named is human epidermal growth factor receptor (EGFR) family (EGFR/HER1, HER2, and HER4) tyrosine kinases. The conditions noted are these: read-out: IC50 (affinity).
The test system of data set [3] is PDAC cell.
[4] abbreviates: 45 mg orally once daily, CV 35%.

Turning to `COc1cc2ncnc(Nc3ccc(F)c(Cl)c3)c2cc1NC(=O)/C=C/CN1CCCCC1` [Dacomitinib, (2E)-N-16-4-(piperidin-1-yl) but-2-enamide], under setting [4], the “Cmax, geometric mean” value is 108 ng/mL and the “area under the concentration-time curve (AUC)” value is 2213 ng·h/mL. For the same compound, the volume of distribution (CV 18%) was 1889 L. Further, the mean absolute bioavailability (after oral administration) is listed as 80%. Further, for the setting “oral”, the “time to reach maximum concentration” value is listed as “approximately 6.0 h”. For the same compound, the “bound to plasma proteins” value in data set [1] is listed as 98%. Moreover, the pIC50 (as a rule, the IC50 on a negative log10 scale, so that one unit is a factor of ten) in data set [2] was 8.22. In data set [3] (through inhibition of EMT markers ZEB1, Snail and N-cadherin), the “cell migration and invasion” value was “attenuated cell migration and invasion”. Further, the PDAC cell proliferation result in data set [3] (via inhibition of FOXM1 and its targets Aurora kinase B and cyclin B1) is “diminishes PDAC cell proliferation”. The apoptosis and radio-sensitivity entry in data set [3] (via inhibition of anti-apoptotic proteins survivin and MCL1) is “induces apoptosis and potentiated radio-sensitivity”.
